In US8039486B2, “Indole, azaindole and related heterocyclic N-substituted piperazine derivatives” (priority 2003, dated 2011) one finds EC50 data, which are given here for 34 molecules.

This test relates to HIV-1 single-round infectious reporter virus. In words: Single-round infectious HIV-1 luciferase reporter virus infection of HeLa CD4 cells. It is filed as cell-based. The following applies: Human immunodeficiency virus 1, HeLa, 72 h, read-out: EC50 Group from Table 1. As to the method: • Virus production—Human embryonic Kidney cell line, 293, was propagated in Dulbecco's Modified Eagle Medium (Invitrogen, Carlsbad, Calif.) containing 10% fetal Bovine serum (FBS, Sigma, St. Louis, Mo.). • Virus infection—Human epithelial cell line, HeLa, expressing the HIV-1 receptor CD4 was propagated in Dulbecco's Modified Eagle Medium (Invitrogen, Carlsbad, Calif.) containing 10% fetal Bovine serum (FBS, Sigma, St. Louis, Mo.) and supplemented with 0.2 mg/mL Geneticin (Invitrogen, Carlsbad, Calif.). Virus-Single-round infectious reporter virus was produced by co-transfecting human embryonic Kidney 293 cells with an HIV-1 envelope DNA expression vector and a proviral cDNA containing an envelope deletion mutation and the luciferase reporter gene inserted in place of HIV-1 nef sequences (Chen et al, Ref 41). Transfections were performed using lipofectAMINE PLUS reagent as described by the manufacturer (Invitrogen, Carlsbad, Calif.). Experiment • 1. HeLa CD4 cells were plated in 96 well plates at a cell density of 1×10^4 cells per well in 100 μl Dulbecco's Modified Eagle Medium containing 10% fetal Bovine serum and incubated overnight. • 2. Compound was added in a 2 μl dimethylsulfoxide solution, so that the final assay concentration would be ≦10 μM. • 3. 100 μl of single-round infectious reporter virus in Dulbecco's Modified Eagle Medium was then added to the plated cells and compound at an approximate multiplicity of infection (MOI) of 0.01, resulting in a final volume of 200 μl per well. • 4. Virally-infected cells were incubated at 37 degrees Celsius, in a CO2 incubator, and harvested 72 h after infection. • 5. Viral infection was monitored by measuring luciferase expression from viral DNA in the infected cells using a luciferase reporter gene assay kit, as described by the manufacturer (Roche Molecular Biochemicals, Indianapolis, Ind.). Infected cell supernatants were removed and 50 μl of lysis buffer was added per well. After 15 minutes, 50 μl of freshly-reconstituted luciferase assay reagent was added per well. Luciferase activity was then quantified by measuring luminescence using a Wallac microbeta scintillation counter. • 6. The percent inhibition for each compound was calculated by quantifying the level of luciferase expression in cells infected in the presence of each compound as a percentage of that observed for cells infected in the absence of compound and subtracting such a determined value from 100. • 7. An EC50 provides a method for comparing the antiviral potency of the compounds of this invention. The effective concentration for fifty percent inhibition (EC50) was calculated with the Microsoft Excel Xlfit curve fitting software. For each compound, curves were generated from percent inhibition calculated at 10 different concentrations by using a four paramenter logistic model (model 205). Table 1 is the key for the data in Table 2. Results
Background: A reporter such as luciferase makes a cellular process visible.

For the molecule `COc1cnc(-n2nccn2)c2[nH]cc(C(=O)C(=O)N3CCN(c4ncnc5ccccc45)CC3)c12` [Example 51], the EC50 is below 1000 nM.
In the case of `COc1ccc(/C(N)=N\O)c2[nH]cc(C(=O)C(=O)N3CCN(c4nccc5ccccc45)CC3)c12` [Example 14], the EC50 is below 1000 nM.
With `COc1cnc(-n2cnc(C)n2)c2[nH]cc(C(=O)C(=O)N3CCN(c4nc(Cl)cc5ccccc45)CC3)c12` [Example 66] the figure was below 1000 nM; with `COc1ccc(-c2nnn(CC(=O)O)n2)c2[nH]cc(C(=O)C(=O)N3CCN(c4nccc5ccccc45)CC3)c12` [Example 27], below 1000 nM; with `COc1ccc(-c2nc(CC#N)n[nH]2)c2[nH]cc(C(=O)C(=O)N3CCN(c4nccc5ccccc45)CC3)c12` [Example 24], below 1000 nM.
With `COc1cnc(C(N)=O)c2[nH]cc(C(=O)C(=O)N3CCN(c4ncnc5ccccc45)CC3)c12` [Example 49] the figure was below 1000 nM; with `O=C(C(=O)N1CCN(c2nccc3ccoc23)CC1)c1c[nH]c2c(-c3ncon3)ccc(F)c12` [Example 2], below 1000 nM.
As for `COc1cnc(-c2cncnc2)c2[nH]cc(C(=O)C(=O)N3CCN(c4ncnc5ccccc45)CC3)c12` [Example 80], the EC50 was below 1000 nM.
With `O=C(C(=O)N1CCN(c2nccc3ccccc23)CC1)c1c[nH]c2c(-c3nccs3)ccnc12` [Example 38] the figure was below 1000 nM; with `O=C(C(=O)N1CCN(c2ncnc3ccccc23)CC1)c1c[nH]c2c(-c3ncon3)ccc(F)c12` [Example 3], below 1000 nM; with `COc1ccc(-c2nnn(C)n2)c2[nH]cc(C(=O)C(=O)N3CCN(c4nccc5ccccc45)CC3)c12` [Example 16], below 1000 nM.
With `COc1ccc(-c2nc(C)n[nH]2)c2[nH]cc(C(=O)C(=O)N3CCN(c4nccc5ccccc45)CC3)c12` [Example 11] the figure was below 1000 nM; with `O=C(C(=O)N1CCN(c2ncnc3ccccc23)CC1)c1c[nH]c2c(-c3ccncc3)ncc(F)c12` [Example 79], 1000 to 5000 nM.
In the case of `COc1ccc(-c2nc(-c3cccnc3)n[nH]2)c2[nH]cc(C(=O)C(=O)N3CCN(c4nccc5ccccc45)CC3)c12` [Example 22] it was below 1000 nM; in that of `COc1cnc(-n2cncn2)c2[nH]cc(C(=O)C(=O)N3CCN(c4ncnc5ccccc45)CC3)c12` [Example 47], below 1000 nM.
For the molecule `COc1ccc(-c2nc3ccccc3[nH]2)c2[nH]cc(C(=O)C(=O)N3CCN(c4nccc5ccccc45)CC3)c12` [Example 19], the EC50 was below 1000 nM.
With `COc1ccc(-c2cnccn2)c2[nH]cc(C(=O)C(=O)N3CCN(c4nccc5ccccc45)CC3)c12` [Example 30] the figure was below 1000 nM; with `O=C(C(=O)N1CCN(c2nccc3ccccc23)CC1)c1c[nH]c2c(-c3ccccn3)ncc(F)c12` [Example 72], below 1000 nM.
In the case of `COc1cnc(Br)c2[nH]cc(C(=O)C(=O)N3CCN(c4ncnc5ccccc45)CC3)c12` [Example 53] it was below 1000 nM; in that of `O=C(C(=O)N1CCN(c2nncc3ccccc23)CC1)c1c[nH]c2c(-c3ccccn3)ncc(F)c12` [Example 77], below 1000 nM; in that of `O=C(C(=O)N1CCN(c2nncc3ccccc23)CC1)c1c[nH]c2c(-c3cn[nH]c3)ncc(F)c12` [Example 93], below 1000 nM.
In the case of `COc1cnc(Br)c2[nH]cc(C(=O)C(=O)N3CCN(c4nncc5ccccc45)CC3)c12` [Example 62] it was below 1000 nM; in that of `COc1ccc(-c2nnn(CC(N)=O)n2)c2[nH]cc(C(=O)C(=O)N3CCN(c4nccc5ccccc45)CC3)c12` [Example 29], below 1000 nM.
Consider `COc1ccc(Br)c2[nH]cc(C(=O)C(=O)N3CCN(c4nccc5ccccc45)CC3)c12` [Example 4], for which the EC50 was below 1000 nM.
In the case of `COc1cnc(-n2cnc(C(N)=O)n2)c2[nH]cc(C(=O)C(=O)N3CCN(c4ncnc5ccccc45)CC3)c12` [Example 70] it was below 1000 nM; in that of `O=C(C(=O)N1CCN(c2nccc3ccccc23)CC1)c1c[nH]c2c(Cl)ccnc12` [Example 37], below 1000 nM.
Turning to `O=C(C(=O)N1CCN(c2ncnc3ccccc23)CC1)c1c[nH]c2c(-n3ccnn3)ncc(F)c12` [Example 48], the EC50 is below 1000 nM.
In the case of `COc1ccc(-n2ccnc2)c2[nH]cc(C(=O)C(=O)N3CCN(c4nccc5ccccc45)CC3)c12` [Example 5] it was below 1000 nM; in that of `COC(=O)Cc1n[nH]c(-c2ccc(OC)c3c(C(=O)C(=O)N4CCN(c5nccc6ccccc56)CC4)c[nH]c23)n1` [Example 32], below 1000 nM.
With `COC(=O)Cn1nnc(-c2ccc(OC)c3c(C(=O)C(=O)N4CCN(c5nccc6ccccc56)CC4)c[nH]c23)n1` [Example 26] the figure was below 1000 nM; with `O=C(C(=O)N1CCN(c2ncnc3ccccc23)CC1)c1c[nH]c2c(-c3cn[nH]c3)ncc(F)c12` [Example 95], below 1000 nM.
Consider `COc1cnc(-n2cnc(C)n2)c2[nH]cc(C(=O)C(=O)N3CCN(c4nnc(O)c5ccccc45)CC3)c12` [Example 58], for which the EC50 is below 1000 nM.
For the molecule `COc1ccc(-c2nc(CC(=O)O)n[nH]2)c2[nH]cc(C(=O)C(=O)N3CCN(c4nccc5ccccc45)CC3)c12` [Example 33], the concentration for a half-maximal effect (EC50) was below 1000 nM.
With `COc1cnc(-n2cnc(C)n2)c2[nH]cc(C(=O)C(=O)N3CCN(c4ccnc5ccccc45)CC3)c12` [Example 39] the figure was below 1000 nM.

What is called EC50 is the midpoint of the concentration-response curve.
